Measurements published in US8795650B2, “Derivation of unlimited quantities of neutrophils or monocyte/dendritic cells” (The Regents of the University of California, priority 2004, dated 2014).

System: SCF Hoxb8-ER progenitors
Conditions: SCF medium supplemented with the cytokine
Description: Cells were photographed 6 days after differentiation was initiated by removal of estradiol. […] Distribution of mature cell types is indicated below each column, as measured at the end of the 6 day differentiation.

Substance | impact on neutrophil-committed differentiation | progenitors maturing as macrophages (6 day differentiation) | expansion during differentiation (estradiol removed)
Erythropoietin | no impact |  | 
GM-CSF |  | 16% | 830 fold
